Data set [1] has as its system NRF2-ARE pathway in the CHO 4× ARE-TK cell line. Nature of the data set: ARE reporter assay in CHO 4×ARE-TK-GFP cell line (GFP induction, EthD1 toxicity). To be noted: for maximal fold induction: read-out: Average fold GFP induction at maximal response. Here is the method:
Chinese Hamster Ovary (CHO), NSC34 mouse motor neuronal cells, C6 (rat) and 1321N1 (human) astrocytic lines were routinely maintained in DMEM supplemented with 10% FBS and penicillin/streptomycin. […] These plasmids were transfected into CHO, C6 and 1321N1 cell lines using Lipofectamine 2000 (Invitrogen) and following 10-14 days of selection in 0.5 mg/ml G418 they were expanded and selected for basal eGFP expression using fluorescence activated cell sorting (BD, FACSAria) with two sequential cell sorts for each cell line. These mixed populations of stable transfectants with basal eGFP expression were used in subsequent assays and designated 4×ARE-TK-GFP for the ARE containing line and TK-GFP for the control cell line. […]
Confluent cultures of 4×ARE-TK-GFP CHO or TK-GFP CHO expressing cells in 96 or 384-well tissue-culture plates were treated with drug (0.01-100 µM in triplicate) or vehicle (0.1-1% DMSO) in FCS-free DMEM in triplicate for 24 hours. The media was removed and replaced with the same volume of PBS containing 0.3 μM EthD1. […] Non-linear regression was used to fit a sigmoidal dose-response curve on a semi-Log plot to calculate the EC50 using GraphPad Prism (GraphPad Software). The reporter assay was conducted in a similar fashion in C6 and 1321N1 astrocyte cell lines stably transfected with the 4×ARE-TK-GFP and TK-GFP constructs except that Eth D1 was added directly in the media and read prior to washing the cells once and reading the […] signal. […]
The compounds were applied in triplicate to confluent cells in 96 well plates in serum free medium for 24 hours and the induction of GFP measured in a fluorescence plate reader. […]

Data set [2] concerns C6 (rat) astrocytic line. Briefly: C6 oxidative stress assay (serum withdrawal, DCF). To be noted: for Lowest dose with toxicity: C6; for IC50: C6, 24 h pre-treatment, serum withdrawal, DCF; for Maximal % reduction in Oxidative stress: C6, DCF fluorescence.
Experimental: (§1) A simple oxidative stress assay was used to determine whether preconditioning with NRF2-ARE inducing drugs could protect against a subsequent oxidative stress insult (serum withdrawal). The NSC34, C6 and 1321N1 cells were plated in 96 well tissue culture plates to achieve 30% confluency. […] Media was then replaced with serum free, phenol free media for 5 hrs. […] Cell survival assay was then performed on the cells as protection is measured as % reduction in DCF signal, therefore data points were excluded where a decrease in cell number was measured.
(§2) Briefly methylthiazolyldiphenyl-tetrazolium bromide (MTT) was added to the cells and a blank well to a final concentration 0.5 mg/ml and incubated at 37° C. for 1-3 hrs depending on the cell line used.
The test system of data set [3] is 1321N1 (human) astrocytic line. Nature of the data set: 1321N1 oxidative stress assay (serum withdrawal, DCF). To be noted: for Lowest dose with toxicity: 1321N1; for IC50: 1321N1, 24 h pre-treatment, serum withdrawal, DCF; for Maximal % reduction in Oxidative stress: 1321N1, DCF fluorescence.
Experimental: as §1, §2
Data set [4] has as its system NSC34 mouse motor neuronal cells. Briefly: NSC34 oxidative stress assay (serum withdrawal, DCF). The note with it: for Lowest dose with toxicity: NSC34; for Maximal % reduction in Oxidative stress: NSC34, DCF fluorescence, negative = pro-oxidant.
Experimental: as §1, §2
The mark [5] stands for this setting: Cricetulus griseus, 24 h, read-out: Average EC50.
[6] abbreviates: Cricetulus griseus, 24 h, read-out: Average EC50, CHO 4×ARE-TK-GFP, GFP induction, 24 h.
[7] abbreviates: read-out: Average EC50, CHO 4×ARE-TK-GFP, GFP induction, 24 h.

Counter-ions that a name gives are not always drawn. Like-named read-outs stand apart in the source and are kept apart here.

The EC50 is the concentration that produces a half-maximal response. As usually defined, the IC50 is the point on the concentration scale where inhibition reaches its midpoint. Turning to `COc1ccc(/C=C/C(=O)c2ccccc2)cc1` [4 methoxychalcone], the “Lowest dose with toxicity” value was 100 µM in data set [1] (CHO ARE reporter assay), “none” in data set [2], “none” in data set [3] and “none” in data set [4]. Moreover, the EC50 in data set [1] (setting [5]) is 15 µM. For the same molecule, the maximal fold induction in data set [1] (Cricetulus griseus, 24 h) is 2.13. Besides, the IC50 in data set [2] came out at 3.55 µM; in data set [3] it was 3.6 µM.
As for `O=C1C=C2C=C[C@@H]3C[C@@]2(O1)[C@H]1CCCCN31` [Securinine], the “Lowest dose with toxicity” value in data set [1] (CHO ARE reporter assay) was 30 µM; in data set [2], “none”; in data set [3], “none”; in data set [4], “none”. Moreover, the EC50 in data set [1] (setting [5]) is 2.12 µM. Besides, in data set [1] (Cricetulus griseus, 24 h), the maximal fold induction was found to be 3. Moreover, the figures for the IC50 in data set [2] and in data set [3] were 0.645 µM and 18.3 µM, respectively.
With `Oc1ccc(O)cc1` [hydroquinone, reference compound], the “Lowest dose with toxicity” value in data set [1] (Chinese hamster, 24 h) is 100 µM; in data set [2], “none”; in data set [3], “none”; in data set [4], “none”. Also, the maximal fold induction in data set [1] (Cricetulus griseus, 24 h) is 2.95.
On to `C=C(C)C(=O)C(=CC(=O)O)OC` [penicillic acid], for which the “Lowest dose with toxicity” value is 100 µM in data set [1] (CHO ARE reporter assay), “none” in data set [2], “none” in data set [3] and “none” in data set [4]. The EC50 in data set [1] (setting [5]) is 14.9 µM. The maximal fold induction in data set [1] (Cricetulus griseus, 24 h) was 2.64. The IC50 in data set [2] came out at 4.62 µM.
Regarding `CC(COc1ccccc1)NC(C)C(O)c1ccc(O)cc1` (centres unmarked) [Isoxsuprine hydrochloride, reference compound], the “Lowest dose with toxicity” value in data set [1] (Chinese hamster, 24 h) was 100 µM; in data set [2], “none”; in data set [3], “none”; in data set [4], “none”. The EC50 in data set [1] (setting [6]) is 8.7 µM. The maximal fold induction in data set [1] (Cricetulus griseus, 24 h) amounted to 1.52. Besides, in data set [2], the IC50 amounted to 23 µM.
Take `O=c1c2ccccc2[se]n1-c1ccccc1` [Ebselen, reference compound]: the “Lowest dose with toxicity” value in data set [1] (Chinese hamster, 24 h) was 100 µM; in data set [2] it was “none”; in data set [3], “none”; in data set [4] it was “none”. Also, the maximal fold induction in data set [1] (Cricetulus griseus, 24 h) is 2.81.
Regarding `COc1ccc2c(c1)OC/C(=C/c1ccc(OC)c(OC)c1)C2=O` [sappanone A trimethyl ether], in data set [1] (CHO 4×ARE-TK-GFP, 24 h), the “Average fold GFP induction at maximal response” value (“Average fold GFP induction” for short) is 1.99 fold. In addition, the “Lowest dose with toxicity” value in data set [1] (CHO ARE reporter assay) is 100 µM; in data set [2], “none”; in data set [3], “none”; in data set [4], “none”. Further, in data set [1] (setting [7]), the EC50 came to 3.5 µM. Also, the entries for the “Maximal % reduction in Oxidative stress” value in data set [2], in data set [3] and in data set [4] were 27%, 40% and −60%, respectively. In addition, the IC50 in data set [3] is 0.279 µM.
On to `CC1(C)C2CC(=O)O[C@@]3(C)C4=CC(=O)O[C@@H](c5ccoc5)[C@]4(C)CCC3[C@@]2(C)C=C[C@H]1O` (some centres unmarked) [Deoxyandirobin lactone], for which the “Lowest dose with toxicity” value is 100 µM in data set [1] (Chinese hamster, 24 h); “none” in data set [2]; “none” in data set [3]; “none” in data set [4]. For the same molecule, in data set [1] (Cricetulus griseus, 24 h), the maximal fold induction amounted to 3.03.
For the molecule `ClC1=C(Cl)C2(Cl)C3C(Cl)C(Cl)CC3C1(Cl)C2(Cl)Cl` (centres unmarked) [Chlordane], the “Lowest dose with toxicity” value in data set [1] (CHO ARE reporter assay) is 100 µM; in data set [2], “none”; in data set [3] it was “none”; in data set [4] it was 3 µM. The EC50 in data set [1] (setting [5]) was 9.18 µM. Besides, the maximal fold induction in data set [1] (Cricetulus griseus, 24 h) turned out to be 1.56. In data set [2], the IC50 was 3.57 µM.
With “methyl-7-deshydroxypyrogallin-4-carboxylate”, the “Average fold GFP induction” value in data set [1] (CHO 4×ARE-TK-GFP, 24 h) worked out at 2.83 fold. The “Lowest dose with toxicity” value is 100 µM in data set [1] (CHO ARE reporter assay), “none” in data set [2], “none” in data set [3] and 0.3 µM in data set [4]. Also, in data set [1] (setting [7]), the EC50 is 2050 µM. Also, the IC50 in data set [2] turned out to be 2.95 µM. Also, the results for the “Maximal % reduction in Oxidative stress” value in data set [2], in data set [3] and in data set [4] were 70%, 45% and −23%, respectively.
In the case of `CCCCCc1c2c(cc(O)c1C(=O)O)OC(=O)c1c(cc(OC)cc1C(=O)CCCC)O2` [Lobaric acid], the “Lowest dose with toxicity” value in data set [1] (Chinese hamster, 24 h) was 100 µM; in data set [2], “none”; in data set [3] it was “none”; in data set [4] it was “none”. Moreover, the maximal fold induction in data set [1] (Cricetulus griseus, 24 h) worked out at 2.53.
As to `C=CC(C1=CC(=O)C(OC)=CC1=O)c1ccccc1` (centres unmarked) [4-Methoxydalbergione], the “Average fold GFP induction” value in data set [1] (CHO 4×ARE-TK-GFP, 24 h) was 2.11 fold. Besides, the “Lowest dose with toxicity” value in data set [1] (CHO ARE reporter assay) is 100 µM; in data set [2], “none”; in data set [3], “none”; in data set [4], “none”. In data set [1] (setting [7]), the EC50 turned out to be 11 µM. The IC50 in data set [2] stood at 2.5 µM. For the same molecule, the “Maximal % reduction in Oxidative stress” value in data set [2] is given as 14%; in data set [3], 43%; in data set [4], −44%.
As to `Cc1cc(O)c(C)c(O)c1C(=O)O` [3 methylorsellinic acid], the “Lowest dose with toxicity” value in data set [1] (Chinese hamster, 24 h) was 100 µM; in data set [2], “none”; in data set [3], “none”; in data set [4], 0.3 µM. Besides, the maximal fold induction in data set [1] (Cricetulus griseus, 24 h) was found to be 2.87.
With `COc1cc(O)cc(OC)c1OC` [Antiarol], the “Lowest dose with toxicity” value was 100 µM in data set [1] (Chinese hamster, 24 h); 10 µM in data set [2]; “none” in data set [3]; 10 µM in data set [4]. Besides, the maximal fold induction in data set [1] (Cricetulus griseus, 24 h) is 1.64.
`CC1(C)C(=O)C=C[C@]2(C)[C@H]3CC[C@@]4(C)[C@H](c5ccoc5)OC(=O)[C@H]5O[C@]54[C@]3(C)[C@H](O)C[C@@H]12` [Deacetylgedunin]: the “Lowest dose with toxicity” value in data set [1] (CHO ARE reporter assay) was 30 µM; in data set [2], “none”; in data set [3], 10 µM; in data set [4], “none”. Besides, the EC50 in data set [1] (setting [5]) amounted to 3.5 µM. The maximal fold induction in data set [1] (Cricetulus griseus, 24 h) came out at 3.05. The IC50 was determined as 5.36 µM in data set [2] and 2.37 µM in data set [3].
On to Euphol acetate, for which the “Average fold GFP induction” value in data set [1] (CHO 4×ARE-TK-GFP, 24 h) is listed as 2.20 fold. For the same molecule, the “Lowest dose with toxicity” value was 100 µM in data set [1] (CHO ARE reporter assay), “none” in data set [2], “none” in data set [3] and “none” in data set [4]. The EC50 in data set [1] (setting [7]) is approximately 99 µM. The “Maximal % reduction in Oxidative stress” value is 0% in data set [2], 38% in data set [3] and −43% in data set [4]. Further, the IC50 in data set [3] amounted to 18 µM.
As for `Cc1[nH]c2ccccc2c1CN(C)C` [2 methyl gramine], the “Average fold GFP induction” value in data set [1] (CHO 4×ARE-TK-GFP, 24 h) is recorded as 2.27 fold. Besides, the “Lowest dose with toxicity” value was 100 µM in data set [1] (CHO ARE reporter assay), “none” in data set [2], “none” in data set [3] and 3 µM in data set [4]. The EC50 in data set [1] (setting [7]) was 3 µM. Also, the IC50 in data set [2] was found to be 32 µM; in data set [3], 11 µM. In addition, the “Maximal % reduction in Oxidative stress” value in data set [2] is 36%; in data set [3] it was 36%; in data set [4] it was −30%.
With `CC(=O)Oc1ccc(O)cc1` [4 acetoxyphenol], the “Lowest dose with toxicity” value was 100 µM in data set [1] (Chinese hamster, 24 h); “none” in data set [2]; “none” in data set [3]; “none” in data set [4]. Further, in data set [1] (Cricetulus griseus, 24 h), the maximal fold induction is 2.78.
Take `C=C(C)/C=C1/C=CC(=O)C(C)=C1` [Retusoquinone]: the “Lowest dose with toxicity” value in data set [1] (Chinese hamster, 24 h) is 100 µM; in data set [2], “none”; in data set [3], “none”; in data set [4], “none”. For the same molecule, in data set [1] (setting [6]), the EC50 is approximately 35 µM. Besides, the maximal fold induction in data set [1] (Cricetulus griseus, 24 h) is 2.04.
